{"source": "patent US20080020998A1", "about": "“Sustained release compositions for the therapeutic management of pain, inflammation and inflammation-associated disorders and prophylactic/ therapeutic methods thereof” (priority 2006, published 2008)", "key": {"[1]": {"system": "patients with osteoarthritis of the knee", "assay": "Double blind, randomized study in osteoarthritis of the knee: VAS assessment of pain, stiffness and swelling", "type": "in vivo, human", "settings": "twice-daily for 90 days, VAS scored 0 to 10, baseline vs end of 90 days", "description": "The institutional ethics committee approved the study protocol. Patients were recruited from the orthopaedic outpatient clinic of a tertiary care hospital. Consecutive outpatients of either sex, aged between 40-65 years in ARA functional class I, II or III and radiologically diagnosed to have osteoarthritis of the knee were identified. Clinically pain or discomfort should have been experienced in the affected knee on most days for the previous 3 months. Of these, patients already undergone knee arthroplasty, taken glucosamine in the previous 3 months or any intraarticular injection within previous month, having renal and/or hepatic disease, diabetes mellitus or a disabling co-morbidity were excluded.\nAfter giving their written informed consent, patients were assessed at baseline for demographic and clinical characteristics. They were then randomized to receive either glucosamine sulphate or a combination of glucosamine sulphate, Boswellia serrata and curcuminoids twice-daily in a double blind manner for a total period of 90 days. Both the medications were identical in appearance and taste. Treatment of associated disease was allowed at the discretion of the physician. Patients were assessed at baseline and at the end of 90 days. […] VAS was scored from 0 to 10, where 0 indicates no pain/swelling/stiffness and 10 is the worst pain/swelling/stiffness imaginable.\n(§1) The Western Ontario McMaster Universities Osteoarthritis Index (WOMAC) (8) was used to evaluate pain, stiffness and physical function of the knee. […] Adherence to trial medication was recorded. Adverse events, patient withdrawals and concomitant illnesses were recorded in accordance with good clinical practice guidelines.\nThe primary outcome measure was the change in VAS and WOMAC assessment of pain and stiffness in the affected knee. Response to treatment was analysed on an intention to treat basis, and the continuous variables were tested for significance by the standard error of difference in means. Categorical data were expressed as percentages with their 95% confidence intervals (CI). […]"}, "[2]": {"system": "patients with osteoarthritis of the knee", "assay": "Double blind, randomized study in osteoarthritis of the knee: adherence and adverse events", "type": "in vivo, human", "settings": "90-day trial, 50 patients randomized to two groups", "experimental": "After giving their written informed consent, patients were assessed at baseline for demographic and clinical characteristics. They were then randomized to receive either glucosamine sulphate or a combination of glucosamine sulphate, Boswellia serrata and curcuminoids twice-daily in a double blind manner for a total period of 90 days. Both the medications were identical in appearance and taste. Treatment of associated disease was allowed at the discretion of the physician. Patients were assessed at baseline and at the end of 90 days. Four separate 10 cm visual analogue scales (VAS) were used to measure pain in affected knee at rest, on movement and the patients overall assessment of swelling and morning stiffness. VAS was scored from 0 to 10, where 0 indicates no pain/swelling/stiffness and 10 is the worst pain/swelling/stiffness imaginable.\nas §1, with “knee. The pain and stiffness subscales of the WOMAC have scores of 0-20 and 0-8 respectively, with 0 representing no pain or stiffness.” for “knee.”"}}}
{"smiles": "N[C@H]1C(O)O[C@H](CO)[C@@H](O)[C@@H]1O.O=S(=O)(O)O", "note": "(some centres unmarked) [glucosamine sulphate]", "values": [{"measurement": "Mean (95% CI) decrease in VAS score for morning stiffness", "setting": "[1]", "result": 0.13}, {"measurement": "Mean (95% CI) decrease in VAS score for pain on use", "setting": "[1]", "result": 0.27}, {"measurement": "Mean (95% CI) decrease in VAS score for swelling", "setting": "[1]", "result": 0.45}, {"measurement": "Patients who reported headache", "setting": "[2]", "result": "4 (16.0%) patients (%)"}, {"measurement": "Patients who reported increase in pain", "setting": "[2]", "result": "3 (12.0%) patients (%)"}]}
